Experimental findings from patent EP4741380A1, “ISOXAZOLINE COMPOUND AND USE” (priority 2024, dated 2025) are described below.

The data set relates to mites. In words: Mite killing efficacy test with an in vitro model. To be noted: 30 µM drug solution. Here is the method:
Mite collection: Live mites were gently picked up from a cage box with cotton swabs or small tweezers, 17-26 live mites per group.
Drug treatment and detection method: 100 µL of a drug solution with a different concentration (drug solution prepared by 3% DMSO solution + 97% water and having a target final concentration of 30 µM) was aspirated with a pipette and added to a 24-well plate for each group, ensuring full contact between the drug and the mites. The mites were separately incubated at normal temperature for 5 min, transferred from each plate to another dry 24-well plate with the top sealed, and air-dried for about 1 h. Mite actions were observed, and the number of dead mites/the total number of mites was recorded. Then, the 24-well plate containing the mites was cultured at room temperature and relatively high humidity. The number of dead mites/the total number of mites was counted separately after 1 h, 2 h, 4 h, 6 h, 8 h, 22 h, and 24 h (time points after drug addition), and mite mortality rates were calculated. The project ended 24 h after drug addition.
At a corresponding time point, a mite mortality rate greater than or equal to 90% is denoted as "+++", a mite mortality rate less than 90% and greater than or equal to 50% is denoted as "++", and a mite mortality rate less than 50% is denoted as "+".

[1] abbreviates: 4 h after drug addition, read-out: Mite Mortality Rate 4 h.
The mark [2] stands for this setting: 24 h after drug addition, read-out: Mite Mortality Rate 24 h.

Like-named read-outs stand apart in the source and are kept apart here.

`Cc1cc(C2=NOC(c3cc(Cl)cc(Cl)c3)(C(F)(F)F)C2)ccc1C(=O)NCC(=O)NCC1(C(F)(F)F)CC1` (stereo not drawn) [Example 018]: the “Mite Mortality Rate 4 h” value (4 h after drug addition) is given as “+ (a mite mortality rate less than 50% is denoted as "+")”. In addition, the “Mite Mortality Rate 24 h” value (24 h after drug addition) was “++ (a mite mortality rate less than 90% and greater than or equal to 50% is denoted as "++")”.

`Cc1cc(C2=NOC(c3cc(Cl)cc(Cl)c3)(C(F)(F)F)C2)ccc1C(=O)NCC(=O)N1CC(O)(C(F)(F)F)C1` (stereo not drawn) [Example 014, 4-(5-(3,5-dichlorophenyl)-5-(trifluoromethyl)-4,5-dihydroisoxazol-3-yl)-N-(2-(3-hydroxy-3-(trifluoromethyl)azetidin-1-yl)-2-oxoethyl)-2-methylbenzamide]: the mortality at 30 µM by setting is: under setting [1], below 50%; under setting [2], below 50%.

In the case of `Cc1cc(C2=NOC(c3cc(Cl)cc(C(F)(F)F)c3)(C(F)(F)F)C2)ccc1C(=O)NCC(=O)NC1(C(F)(F)F)CC1` (racemic) [Example 007, 4-(5-(3-chloro-5-(trifluoromethyl)phenyl)-5-(trifluoromethyl)-4,5-dihydroisoxazol-3-yl)-2-methy 1-N-(2-oxo-2-((1-(trifluoromethyl)cyclopropyl)amino)ethyl)benzamide], the “Mite Mortality Rate 4 h” value (4 h after drug addition) is “++ (a mite mortality rate less than 90% and greater than or equal to 50% is denoted as "++")”. Besides, the “Mite Mortality Rate 24 h” value (24 h after drug addition) is given as “+++ (a mite mortality rate greater than or equal to 90% is denoted as "+++")”.

In the case of `Cc1cc(C2=NOC(c3cc(Cl)cc(Cl)c3)(C(F)(F)F)C2)ccc1C(=O)NCC(=O)N1CC(F)(F)C1` (stereo not drawn) [Example 022, 4-(5-(3,5-dichlorophenyl)-5-(trifluoromethyl)-4,5-dihydroisoxazol-3-yl)-N-(2-(3,3-difluoroazetidin-1-yl)-2-oxoethyl)-2-methylbenzamide], the mortality at 30 µM runs as follows: under setting [1], below 50%; under setting [2], 50 to 90%.

As to `Cc1cc(C2=NOC(c3cc(Cl)cc(Cl)c3)(C(F)(F)F)C2)ccc1C(=O)N(C)CC(=O)NC1(C(F)(F)F)CC1` (stereo not drawn) [Example 034, 4-(5-(3,5-dichlorophenyl)-5-(trifluoromethyl)-4,5-dihydroisoxazol-3-yl)-N,2-dimethyl-N-(2-oxo-2-((1-(trifluoromethyl)cyclopropyl)amino)ethyl)benzamide], the mortality at 30 µM by setting is: under setting [1], below 50%; under setting [2], above 90%.

For the molecule `O=C(CNC(=O)c1ccc(C2=NOC(c3cc(Cl)cc(Cl)c3)(C(F)(F)F)C2)cc1)NC1(C(F)(F)F)CC1` (stereo not drawn) [Example 038, 4-(5-(3,5-dichlorophenyl)-5-(trifluoromethyl)-4,5-dihydroisoxazol-3-yl)-N-(2-oxo-2-((1-(trifluor omethyl)cyclopropyl)amino)ethyl)benzamide], the mortality at 30 µM runs as follows: under setting [1], below 50%; under setting [2], above 90%.

Consider `Cc1cc(C2=NOC(c3cc(Cl)c(F)c(Cl)c3)(C(F)(F)F)C2)ccc1C(=O)NCC(=O)NC1(C(F)(F)F)CC1` (stereo not drawn) [Example 001, 4-(5-(3,5-dichloro-4-fluorophenyl)-5-(trifluoromethyl)-4,5-dihydroisoxazol-3-yl)-2-methyl-N-(2-oxo-2-((1-(trifluoromethyl)cyclopropyl)amino)ethyl)benzamide], for which the mortality at 30 µM was below 50% under setting [1] and above 90% under setting [2].

As to `Cc1cc(C2=NOC(c3cc(Cl)cc(Cl)c3)(C(F)(F)F)C2)c(F)cc1C(=O)NCC(=O)NCC(F)(F)F` (stereo not drawn) [Example 042], for the setting “4 h after drug addition”, the “Mite Mortality Rate 4 h” value is “+++ (a mite mortality rate greater than or equal to 90% is denoted as "+++")”. The “Mite Mortality Rate 24 h” value (24 h after drug addition) is recorded as “+++ (a mite mortality rate greater than or equal to 90% is denoted as "+++")”.

With `Cc1cc(C2=NOC(c3cc(Cl)cc(Cl)c3)(C(F)(F)F)C2)ccc1C(=O)NCC(=O)N1CC(C(F)(F)F)C1` (stereo not drawn) [Example 023, 4-(5-(3,5-dichlorophenyl)-5-(trifluoromethyl)-4,5-dihydroisoxazol-3-yl)-2-methyl-N-(2-oxo-2-(3-(trifluoromethyl)azetidin-1-yl)ethyl)benzamide], the mortality at 30 µM is, setting by setting: under setting [1], below 50%; under setting [2], 50 to 90%.

On to `Cc1c(C(=O)NCC(=O)NCC(F)(F)F)ccc(C2=NOC(c3cc(Cl)cc(Cl)c3)(C(F)(F)F)C2)c1F` (stereo not drawn) [Example 044], for which, for the setting “4 h after drug addition”, the “Mite Mortality Rate 4 h” value is “+++ (a mite mortality rate greater than or equal to 90% is denoted as "+++")”. Besides, the “Mite Mortality Rate 24 h” value (24 h after drug addition) is given as “+++ (a mite mortality rate greater than or equal to 90% is denoted as "+++")”.

In the case of `Cc1cc(C2=NOC(c3cc(F)cc(Cl)c3)(C(F)(F)F)C2)ccc1C(=O)NCC(=O)NC1(C(F)(F)F)CC1` (stereo not drawn) [Example 027, 4-(5-(3-chloro-5-fluorophenyl)-5-(trifluoromethyl)-4,5-dihydroisoxazol-3-yl)-2-methyl-N-(2-oxo-2-((1-(trifluoromethyl)cyclopropyl)amino)ethyl)benzamide], the mortality at 30 µM was 50 to 90% under setting [1] and above 90% under setting [2].

For `Cc1cc(C2=NOC(c3cc(Cl)cc(Cl)c3)(C(F)(F)F)C2)cc(Cl)c1C(=O)NCC(=O)NC1CC1` (stereo not drawn) [Example 040, 2-chloro-N-(2-(cyclopropylamino)-2-oxoethyl)-4-(5-(3,5-dichlorophenyl)-5-(trifluoromethyl)-4,5-dihydroisoxazol-3-yl)-6-methylbenzamide], the mortality at 30 µM under setting [1] is below 50% and the mortality at 30 µM under setting [2] was below 50%.

For `Cc1cc(C2=NOC(c3cc(Cl)cc(Cl)c3)(C(F)(F)F)C2)ccc1C(=O)NCC(=O)NC1(C(F)(F)F)CC1` (stereo not drawn) [Example 010, 4-(5-(3,5-dichlorophenyl)-5-(trifluoromethyl)-4,5-dihydroisoxazol-3-yl)-2-methyl-N-(2-oxo-2-((1-(trifluoromethyl)cyclopropyl)amino)ethyl)benzamide], the mortality at 30 µM under setting [1] was in the range of 50 to 90% and the mortality at 30 µM under setting [2] was above 90%.

As for `Cc1cc(C2=NO[C@](c3cc(Cl)cc(C(F)(F)F)c3)(C(F)(F)F)C2)ccc1C(=O)NCC(=O)NC1(C(F)(F)F)CC1` [Example 009, (R)-4-(5-(3-chloro-5-(trifluoromethyl)phenyl)-5-(trifluoromethyl)-4,5-dihydroisoxazol-3-yl)-2-m ethyl-N-(2-oxo-2-((1-(trifluoromethyl)cyclopropyl)amino)ethyl)benzamide], the mortality at 30 µM under setting [1] is below 50% and the mortality at 30 µM under setting [2] is below 50%.

`Cc1cc(C2=NOC(c3cc(Cl)cc(Cl)c3)(C(F)(F)F)C2)ccc1C(=O)NCC(=O)N1CCCC1C(F)(F)F` (stereo not drawn) [Example 016, 4-(5-(3,5-dichlorophenyl)-5-(trifluoromethyl)-4,5-dihydroisoxazol-3-yl)-2-methyl-N-(2-oxo-2-(2-(trifluoromethyl)pyrrolidin-1-yl)ethyl)benzamide]: the mortality at 30 µM is below 50% under setting [1] and below 50% under setting [2].

In the case of `Cc1cc(C2=NOC(c3cc(Cl)cc(Cl)c3)(C(F)(F)F)C2)ccc1C(=O)NCC(=O)N1CC(F)(CF)C1` (stereo not drawn) [Example 026, 4-(5-(3,5-dichlorophenyl)-5-(trifluoromethyl)-4,5-dihydroisoxazol-3-yl)-N-(2-(3-fluoro-3-(fluoromethyl)azetidin-1-yl)-2-oxoethyl)-2-methylbenzamide], the mortality at 30 µM under setting [1] lay within 50 to 90% and the mortality at 30 µM under setting [2] was above 90%.

Consider `Cc1cc(C2=NOC(c3cc(Cl)cc(Cl)c3)(C(F)(F)F)C2)ccc1C(=O)NCC(=O)N1CC(F)(C(F)(F)F)C1` (stereo not drawn) [Example 025, 4-(5-(3,5-dichlorophenyl)-5-(trifluoromethyl)-4,5-dihydroisoxazol-3-yl)-N-(2-(3-fluoro-3-(trifluoromethyl)azetidin-1-yl)-2-oxoethyl)-2-methylbenzamide], for which the mortality at 30 µM is below 50% under setting [1] and below 50% under setting [2].

Regarding `Cc1c(C(=O)NCC(=O)NC2CC2)ccc(C2=NOC(c3cc(Cl)cc(Cl)c3)(C(F)(F)F)C2)c1F` (stereo not drawn) [Example 043, N-(2-(cyclopropylamino)-2-oxoethyl)-4-(5-(3,5-dichlorophenyl)-5-(trifluoromethyl)-4,5-dihydroisoxazol-3-yl)-3-fluoro-2-methylbenzamide], the mortality at 30 µM under setting [1] was below 50% and the mortality at 30 µM under setting [2] was 50 to 90%.

For `Cc1cc(C2=NOC(c3cc(Cl)cc(Cl)c3)(C(F)(F)F)C2)ccc1C(=O)N[C@H](C)C(=O)NC1(C(F)(F)F)CC1` (stereo partly drawn) [Example 035, 4-(5-(3,5-dichlorophenyl)-5-(trifluoromethyl)-4,5-dihydroisoxazol-3-yl)-2-methyl-N-((R)-1-oxo-1-((1-(trifluoromethyl)cyclopropyl)amino)propan-2-yl)benzamide], the mortality at 30 µM by setting is: under setting [1], below 50%; under setting [2], 50 to 90%.

Regarding `Cc1cc(C2=NOC(c3cc(Cl)cc(Cl)c3)(C(F)(F)F)C2)ccc1C(=O)NCC(=O)N1CCC1C(F)(F)F` (stereo not drawn) [Example 006, 4-(5-(3,5-dichlorophenyl)-5-(trifluoromethyl)-4,5-dihydroisoxazol-3-yl)-2-methyl-N-(2-oxo-2-(2-(trifluoromethyl)azetidin-1-yl)ethyl)benzamide], the mortality at 30 µM is, setting by setting: under setting [1], below 50%; under setting [2], above 90%.

Regarding `Cc1cc(C2=NOC(c3cc(Cl)cc(Cl)c3)(C(F)(F)F)C2)ccc1C(=O)NCC(=O)NC1(C#N)CC1` (stereo not drawn) [Example 024, N-(2-((1-cyanocyclopropyl)amino)-2-oxoethyl)-4-(5-(3,5-dichlorophenyl)-5-(trifluoromethyl)-4,5-dihydroisoxazol-3-yl)-2-methylbenzamide], the mortality at 30 µM under setting [1] was below 50% and the mortality at 30 µM under setting [2] is above 90%.
